From PubChem BioAssay AID2252 (Southern Research Specialized Biocontainment Screening …, 2010)

System: THP-1 viability, CellTiter-Glo luminescence, 72 h
Assay: PubChem AID 2252

Row | SMILES | EC50
1 | CC(NCC(O)COCCC12CC3CC(CC(C3)C1)C2)c1ccccc1 (configuration not stated) | 9.86 µM
2 | O=C(Nc1nnc(-c2ccco2)o1)c1cccc(Cl)c1 | 21.1 µM
3 | O=C(CCl)NC1CCCc2ccccc21 (configuration not stated) | 25.7 µM
4 | COc1cc(CNCCc2c[nH]c3ccccc23)ccc1OCc1ccccc1F | 13.1 µM
5 | O=C(N/N=C/c1ccccn1)c1cccs1 | 26.4 µM
6 | CN1CCN(c2ccccc2NC(=O)c2cc3c(s2)-c2ccccc2OC3)CC1 | 9.73 µM
7 | C#CCOCCOCCOCCNc1nc(N2CCN(C(=O)CCCCCCCCCCNC(=O)[C@H](CCCCN)n3cc(C)nn3)CC2)nc(N2CCN(C(=O)CCCCCCCCCCNC(=O)[C@H](CO)n3cc(CCCSC)nn3)CC2)n1 | 10.4 µM
8 | CN1CCN(C2Cc3ccc(Cl)cc3Sc3ccc(F)cc32)CC1 (configuration not stated) | 11.6 µM
9 | CC(C)(C)c1ccc(OCCNC(=S)Nc2ccccc2)cc1 | 16 µM
10 | O=C(Nc1ccc(Cl)cc1)N1CCCN(Cc2ccccc2F)C1 | 45.8 µM
11 | CCC(/C=C1\Sc2ccc(OC)cc2N1CCO)=C\c1sc2ccc(OC)cc2[n+]1CCO | 8.14 µM
12 | N/C(=N\N=C/c1ccc(F)cc1)N/N=C\c1ccc(F)cc1 | 19 µM
13 | CCCCCCCCCn1c2c(c(=N)c3c1CCC3)CCC2 | 0.52 µM
14 | O=[N+]([O-])c1cccnc1S(=O)(=O)c1ccccc1 | 1.77 µM
15 | O=C(/C=C/c1ccco1)NC(=S)Nc1cccc(-c2nc3ccccc3o2)c1 | < 0.1 µM
16 | NC1=NC[C@@H](Cc2ccc(O)cc2)N1CCCCC1CCCCC1 | 6.98 µM
17 | C1=C(CCNc2ncnc3c2[nH]c2ccccc23)CCCC1 | 5.45 µM
18 | CCCCCc1ccc(OCCCC[n+]2cccc(C)c2)c(CCCCC)c1 | 1.05 µM
19 | O=C(C[n+]1cc(-c2ccc(Cl)cc2)n2c1CCC2)N1c2ccccc2Sc2ccccc21 | 15.4 µM
20 | O=C(Nc1nnc(-c2cccs2)o1)c1cccc(Oc2ccccc2)c1 | 18.6 µM
21 | C#CCOCCOCCOCCNc1nc(N2CCN(C(=O)CCCCCCCCCCNC(=O)Cn3cc(C[C@@H](C)O)nn3)CC2)nc(N2CCN(C(=O)CCCCCCCCCCNC(=O)[C@@H]([C@H](C)CC)n3cc(CCCCCN)nn3)CC2)n1 | 9.97 µM
22 | CCOc1cc(Br)cc(/C=N/NC(=O)c2cccnc2)c1O | 7.58 µM
23 | Oc1ccc(CN2CCCc3ccccc32)c2cccnc12 | 3.33 µM
24 | Cc1ccc(C)c(NC(=O)c2ccccc2O)c1 | 35.1 µM
25 | CC1CCN(CC(CS(=O)(=O)c2ccc([N+](=O)[O-])cc2)N2CCC(C)CC2)CC1 (configuration not stated) | 14.6 µM
26 | N=c1c2c(n(Cc3ccc(Cl)cc3Cl)c3c1CCC3)CCCC2 | 3.66 µM

Row | SMILES | EC50
27 | C#CC(=O)N(c1cccc(OC)c1)C(C(=O)NC1CCCC1)c1cccs1 (configuration not stated) | 0.9 µM
28 | Cc1ccc(S(=O)(=O)CCC(=O)c2ccc(O)cc2O)cc1 | 16 µM
29 | OC(CNCCc1ccccc1)COc1ccc(OCC(O)CNCCc2ccccc2)cc1 (configuration not stated) | 7.35 µM
30 | CCCOc1ccc(C(=O)NNC(=S)NC(C)=O)cc1 | 5.29 µM
31 | CC1CC(C)CN(C(=O)c2ccc(NC(=O)c3ccc(=O)[nH]c3)cc2)C1 (configuration not stated) | 33 µM
32 | COc1cccc(/C=N/NC(=O)C(=O)N2CCCC2)c1O | 40 µM
33 | CCN1CCCC1CNC(=O)C1CCN(Cc2nc(-c3cccc(Br)c3)oc2C)CC1 (configuration not stated) | 12.4 µM
34 | Cc1ccc(-n2c(Cc3noc4ccccc34)n[nH]c2=S)cc1 | < 0.1 µM
35 | Nc1nonc1-n1nnc(C(=O)N/N=C/c2ccccc2O)c1CN1CCCC1 | 8.87 µM
36 | Cc1ccc(C(c2cc(Cl)c3cccnc3c2O)N2CCN(C)CC2)cc1 (configuration not stated) | 4.95 µM
37 | OCCCCNCc1ccc(OCc2ccccc2Cl)cc1 | 34.6 µM
38 | COc1ccc(CNCCC(c2ccccc2)c2ccc3c(c2)OCO3)cc1 (configuration not stated) | 13.4 µM
39 | CCOc1ccc(Nc2nc(NCC3CCCO3)c3ccccc3n2)cc1 (configuration not stated) | 2.28 µM
40 | Cc1ccc(C[n+]2c(-c3ccc(C)cc3)cc(-c3ccc(C)cc3)cc2-c2ccc(C)cc2)cc1 | 0.22 µM
41 | Fc1cccc(NC(=S)NCc2ccc(Cl)cc2)c1 | 46.7 µM
42 | CCOC(=O)c1c(C)[nH]c(C(=O)CN2C(=O)NC(C)(c3ccc4ccccc4c3)C2=O)c1C (configuration not stated) | 39.1 µM
43 | COc1ccc(C(C[N+](=O)[O-])C2(c3ccc(OC)c(OC)c3)C(=O)c3ccccc3C2=O)cc1 (configuration not stated) | 9.85 µM
44 | Cn1c(CCN2CCN(c3ccccn3)CC2)nc2cc(NC(=O)COc3ccccc3)ccc21 | 22.1 µM
45 | C#CCOCCOCCOCCNc1nc(N2CCN(C(=O)CCCCCCCCCCNC(=O)[C@H](CCCCN)n3cc(C[C@@H](C)CC)nn3)CC2)nc(N2CCN(C(=O)CCCCCCCCCCNC(=O)[C@H](CCCN=C(N)N)n3cc(C[C@@H](C)CC)nn3)CC2)n1 | 5.23 µM
46 | CCCCCCCCCCOC(=O)Cn1c(COc2ccccc2C)[n+](C)c2ccccc21 | 1.29 µM
47 | O=C(N/N=C/c1ccc([N+](=O)[O-])s1)C(O)c1ccccc1 (configuration not stated) | 12.9 µM
48 | Oc1[nH]c2ccc(Br)cc2c1N=NC(=S)N1CCOCC1 | 1.82 µM
49 | O=C(N/N=C/c1c(O)ccc2ccccc12)c1ccc(CO)nc1 | 1.41 µM
50 | CCc1cccc(NC(=O)CSC2=NS(=O)(=O)c3ccccc32)c1 | 15.6 µM
51 | O=C(Cn1nc(CNc2ccc(Br)cc2)[n+]2c1CCCCC2)c1ccc([N+](=O)[O-])cc1 | 27.3 µM
52 | O=C(N/N=C/c1cc([N+](=O)[O-])ccc1O)C(O)(c1ccccc1)c1ccccc1 | 11.8 µM

Row | SMILES | EC50
53 | O=c1c(O)cccc2cc(O)c(O)c(O)c12 | 24.2 µM
54 | O=C(Oc1c(Cl)cc(Cl)c2cccnc12)c1ccco1 | 11.6 µM
55 | O=[N+]([O-])c1cc(Cl)c2cccnc2c1O | 28.7 µM
56 | O=C(CCl)Nc1nccs1 | 14.4 µM
57 | O=C(NCc1ccco1)C1CCN(C(=O)c2cc3sccc3n2Cc2ccc(Cl)cc2)CC1 | 27.8 µM
58 | Nc1nonc1C(=O)NCCN=Cc1cc(Cc2ccccc2)cc(Br)c1O | 28 µM
59 | O=C(CCN1CCC(c2ccccc2)C1)c1ccc2c(c1)OCCO2 (configuration not stated) | 21.6 µM
60 | COc1ccc(/C=N/NC(=O)c2ccc3c(c2)OCO3)cc1 | 48.7 µM
61 | Cc1ccc2c(c1)c1c(n2CC(O)CN2CCC(C)CC2)CCCC1 (configuration not stated) | 16 µM
62 | Cc1ccc(Cn2c(=N)n(CC(O)COc3ccccc3)c3ccccc32)cc1 (configuration not stated) | 6.08 µM
63 | COC12C(COC(N)=O)C3=C(C(=O)C(C)=C(N)C3=O)N1CC1C2N1C (configuration not stated) | 11.6 µM
64 | Oc1ccc(COCc2ccccc2)c2cccnc12 | 1.24 µM
65 | O=[N+]([O-])c1ccc(O)c2ncccc12 | 5.99 µM
66 | C#CCOCCOCCOCCNc1nc(N2CCN(C(=O)CCCCCCCCCCNC(=O)[C@H](CO)n3cc(CCCCCN)nn3)CC2)nc(N2CCN(C(=O)CCCCCCCCCCNC(=O)[C@H](CCCN=C(N)N)n3cc(C[C@@H](C)CC)nn3)CC2)n1 | 6.31 µM
67 | Cc1cc2ncn(/N=C/c3ccc([N+](=O)[O-])o3)c2cc1C | 49.3 µM
68 | O=C(N/N=C\c1cccc([N+](=O)[O-])c1O)C1COc2ccccc2O1 (configuration not stated) | 25.4 µM
69 | C/C(=N/Nc1ccnc2cc(Cl)ccc12)c1ccc(N)cc1 | 8.34 µM
70 | O=C(/C=C/c1ccccc1)NNC(=O)c1ccco1 | < 0.1 µM
71 | c1ccc(Nc2nc(NCC3CCCO3)c3ccccc3n2)cc1 (configuration not stated) | 3.83 µM
72 | Nc1nc(Nc2cccc(F)c2)nc2ccccc12 | 8.85 µM
73 | O=C(NC(=S)NNC(=O)c1ccco1)c1ccc(Br)cc1 | 19.7 µM
74 | CCOC(=O)N1CCN(Cc2cc(Cl)c3cccnc3c2O)CC1 | 3.12 µM
75 | COc1ccc(C(C(=O)Nc2ccc(C(C)C)cc2)N(Cc2ccco2)C(=O)CC2NC(=O)NC2=O)cc1 (configuration not stated) | 31.9 µM
76 | Cc1cccc(NC(=O)C2CCCN2S(=O)(=O)c2ccc3c(c2)n(C)c(=O)c(=O)n3C)c1 (configuration not stated) | 11 µM
77 | CCCCn1c(=N)n(CC(=O)c2ccc(Br)s2)c2ccccc21 | 5.43 µM
